How the values were obtained:
Type in all cases: cell-based
hMR = target: T1, hMR (Homo sapiens, UniProt P08235); assay: Cotransfection assay, MR antagonist; conditions: read-out: MR Potency Antag
T1 sequence (P08235 1-984): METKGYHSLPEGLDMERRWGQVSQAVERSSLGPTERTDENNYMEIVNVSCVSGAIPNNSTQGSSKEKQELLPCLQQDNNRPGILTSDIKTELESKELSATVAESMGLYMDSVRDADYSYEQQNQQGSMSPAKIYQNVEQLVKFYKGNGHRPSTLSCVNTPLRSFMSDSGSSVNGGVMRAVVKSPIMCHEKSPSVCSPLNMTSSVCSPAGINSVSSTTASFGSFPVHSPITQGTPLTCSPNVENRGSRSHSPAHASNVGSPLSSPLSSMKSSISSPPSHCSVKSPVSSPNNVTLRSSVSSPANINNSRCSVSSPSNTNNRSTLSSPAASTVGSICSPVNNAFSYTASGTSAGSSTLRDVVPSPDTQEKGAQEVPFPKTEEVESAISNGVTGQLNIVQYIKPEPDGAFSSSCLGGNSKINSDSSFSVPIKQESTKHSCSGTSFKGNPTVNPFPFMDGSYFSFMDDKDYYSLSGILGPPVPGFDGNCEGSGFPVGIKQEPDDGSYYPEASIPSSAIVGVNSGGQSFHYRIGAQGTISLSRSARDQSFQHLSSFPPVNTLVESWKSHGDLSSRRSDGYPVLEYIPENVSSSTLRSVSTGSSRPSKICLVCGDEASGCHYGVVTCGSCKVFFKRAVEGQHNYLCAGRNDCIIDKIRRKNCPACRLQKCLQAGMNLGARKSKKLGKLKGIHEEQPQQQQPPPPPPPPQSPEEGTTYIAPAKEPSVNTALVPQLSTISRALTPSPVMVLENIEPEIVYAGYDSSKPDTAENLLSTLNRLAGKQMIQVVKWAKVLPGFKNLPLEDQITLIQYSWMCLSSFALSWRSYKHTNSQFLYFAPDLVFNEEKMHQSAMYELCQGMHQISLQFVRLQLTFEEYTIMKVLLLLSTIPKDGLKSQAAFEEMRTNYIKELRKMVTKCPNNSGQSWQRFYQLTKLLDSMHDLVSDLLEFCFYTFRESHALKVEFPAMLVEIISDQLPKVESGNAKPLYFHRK

hGR = target: T2, hGR (Homo sapiens, UniProt P04150); assay: Cotransfection assay, GR antagonist; conditions: read-out: GR Potency Antag
T2 sequence (P04150 1-777): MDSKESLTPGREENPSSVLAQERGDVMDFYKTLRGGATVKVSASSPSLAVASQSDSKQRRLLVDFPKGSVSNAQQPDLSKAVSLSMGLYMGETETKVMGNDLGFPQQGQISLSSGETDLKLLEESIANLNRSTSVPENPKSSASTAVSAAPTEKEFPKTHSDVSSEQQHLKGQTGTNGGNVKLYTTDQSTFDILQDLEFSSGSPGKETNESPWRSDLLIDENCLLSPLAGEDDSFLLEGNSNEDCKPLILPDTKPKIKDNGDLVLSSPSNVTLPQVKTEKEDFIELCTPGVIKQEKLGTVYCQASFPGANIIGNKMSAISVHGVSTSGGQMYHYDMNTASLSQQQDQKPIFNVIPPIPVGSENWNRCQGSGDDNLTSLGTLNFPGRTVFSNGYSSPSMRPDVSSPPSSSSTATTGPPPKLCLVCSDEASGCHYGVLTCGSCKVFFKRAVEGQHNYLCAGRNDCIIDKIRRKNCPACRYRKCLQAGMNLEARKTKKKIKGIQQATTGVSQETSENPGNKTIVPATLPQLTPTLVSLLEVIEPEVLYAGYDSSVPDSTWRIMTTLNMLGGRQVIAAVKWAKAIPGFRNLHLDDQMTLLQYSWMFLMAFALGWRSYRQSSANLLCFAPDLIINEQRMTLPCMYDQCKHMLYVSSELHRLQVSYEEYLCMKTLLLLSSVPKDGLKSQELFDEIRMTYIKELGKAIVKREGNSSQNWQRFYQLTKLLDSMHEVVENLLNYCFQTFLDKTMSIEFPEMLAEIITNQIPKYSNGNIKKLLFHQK

hER [1] = target: T3, hER (Homo sapiens, UniProt P03372); assay: Cotransfection assay, ER antagonist; conditions: read-out: ER Potency Antag
T3 sequence (P03372 1-595): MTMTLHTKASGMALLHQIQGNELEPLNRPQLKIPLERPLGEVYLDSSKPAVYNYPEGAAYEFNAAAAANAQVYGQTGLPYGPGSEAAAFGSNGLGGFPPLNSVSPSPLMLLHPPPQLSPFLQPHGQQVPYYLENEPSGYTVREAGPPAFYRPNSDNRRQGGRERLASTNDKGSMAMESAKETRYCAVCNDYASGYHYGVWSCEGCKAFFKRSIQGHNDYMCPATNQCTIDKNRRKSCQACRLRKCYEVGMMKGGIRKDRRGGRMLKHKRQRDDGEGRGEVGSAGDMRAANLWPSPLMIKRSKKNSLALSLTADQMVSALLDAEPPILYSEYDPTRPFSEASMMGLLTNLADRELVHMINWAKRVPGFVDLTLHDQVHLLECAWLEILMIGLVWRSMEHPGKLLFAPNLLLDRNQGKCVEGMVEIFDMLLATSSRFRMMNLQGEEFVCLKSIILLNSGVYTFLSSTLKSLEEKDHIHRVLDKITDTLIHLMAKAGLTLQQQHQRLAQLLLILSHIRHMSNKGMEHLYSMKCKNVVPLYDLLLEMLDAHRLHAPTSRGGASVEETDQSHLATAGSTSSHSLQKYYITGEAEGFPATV

hER [2] = target: T3, hER; assay: Cotransfection assay, ER agonist; conditions: read-out: ER Potency Agon

| Compound | IC50 (hMR) | IC50 (hGR) | IC50 (hER [1]) | EC50 (hER [2]) |
| --- | --- | --- | --- | --- |
| CC1(C)OC(=O)Nc2ccc3c(c21)COc1c(F)cccc1-3 [Compound 14, 7-Fluoro-4,4-dimethyl-5H-chromeno[3,4-f]-1,3-benzo[d]oxazin-2-one] | > 10 µM | > 10 µM | > 10 µM | > 10 µM |
| CC1(C)OC(=O)Nc2ccc3c(c21)COc1c(F)cc(Br)cc1-3 [Compound 20, 9-Bromo-7-fluoro-4,4-dimethyl-5H-chromeno[3,4-f]-1,3-benzo[d]oxazin-2-one] | > 10 µM | > 10 µM | > 10 µM | > 10 µM |
| CC1(C)OC(=O)Nc2ccc3c(c21)COc1c(F)cc(C=O)cc1-3 [Compound 24, 7-fluoro-9-formyl-4,4-dimethyl-5H-chromeno[3,4-f]-1,3-benzo[d]oxazin-2-one] | > 10 µM | > 10 µM | > 10 µM | > 10 µM |

Continued, values first:

| IC50 (hMR) | IC50 (hGR) | IC50 (hER [1]) | EC50 (hER [2]) | Compound |
| --- | --- | --- | --- | --- |
| > 10 µM | > 10 µM | > 10 µM | > 10 µM | CC1(C)OC(=O)Nc2ccc3c(c21)COc1c(F)cc(C=NO)cc1-3 [Compound 25, 7-fluoro-9-hydroxyiminomethyl-4,4-dimethyl-5H-chromeno[3,4-f]-1,3-benzo[d]oxazin-2-one] |
| > 10 µM | > 10 µM | > 10 µM | > 10 µM | CC1(C)OC(=O)Nc2ccc3c(c21)COc1c(F)cc(C#N)cc1-3 [Compound 26, 9-cyano-7-fluoro-4,4-dimethyl-5H-chromeno[3,4-f]-1,3-benzo[d]oxazin-2-one] |
